Test results: ChEMBL document CHEMBL1201862, “PubChem BioAssay data set” (2004)
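Grown in 96-well plates, cells were treated for 48 hours with each compound at five concentrations. Insufficient inhibition: endpoint recorded as highest concentration tested. The concentration for 50% growth inhibition is given as GI50.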 Calls of active or inactive are those of the source. Cut-off read from the data, not from the text of the source: active = GI50 up to about 1.1 µM and inactive = higher.

What was measured:
Experiment in all cases: NCI anticancer screen, dose series, 48 h
BT-549 = tested on: BT-549
CCRF-CEM = tested on: CCRF-CEM
HOP-62 = tested on: HOP-62
HOP-92 = tested on: HOP-92
Hs-578T = tested on: Hs-578T
IGROV-1 = tested on: IGROV-1
M14 = tested on: M14
MDA-MB-231 = tested on: MDA-MB-231
NCI-H226 = tested on: NCI-H226
NCI-H460 = tested on: NCI-H460
OVCAR-3 = tested on: OVCAR-3
OVCAR-4 = tested on: OVCAR-4
PC-3 = tested on: PC-3
SF-268 = tested on: SF-268
SF-295 = tested on: SF-295
SK-MEL-28 = tested on: SK-MEL-28
SNB-75 = tested on: SNB-75
U-251 = tested on: U-251
UACC-257 = tested on: UACC-257
UACC-62 = tested on: UACC-62

Measured: GI50

O=C(O)/C(=C\c1ccccc1)Cc1ccccc1
inactive: BT-549 > 100 µM | CCRF-CEM > 100 µM | HOP-62 > 100 µM | HOP-92 > 100 µM | Hs-578T > 100 µM | IGROV-1 > 100 µM | M14 > 100 µM | MDA-MB-231 > 100 µM | NCI-H226 > 100 µM | NCI-H460 > 100 µM | OVCAR-3 > 100 µM | OVCAR-4 > 100 µM | PC-3 > 100 µM | SF-268 > 100 µM | SF-295 > 100 µM | SK-MEL-28 > 100 µM | SNB-75 > 100 µM | U-251 > 100 µM | UACC-257 > 100 µM | UACC-62 > 100 µM

CC(C)c1ccc(/C(C(=O)O)=C(\O)C(=O)O)cc1
inactive: BT-549 > 100 µM | CCRF-CEM > 100 µM | HOP-62 > 100 µM | HOP-92 > 100 µM | Hs-578T > 100 µM | IGROV-1 > 100 µM | M14 > 100 µM | MDA-MB-231 > 100 µM | NCI-H226 > 100 µM | NCI-H460 > 100 µM | OVCAR-3 > 100 µM | OVCAR-4 > 100 µM | PC-3 > 100 µM | SF-268 > 100 µM | SF-295 > 100 µM | SK-MEL-28 > 100 µM | SNB-75 > 100 µM | U-251 > 100 µM | UACC-257 > 100 µM | UACC-62 > 100 µM

CC(/C=N/N=C1NCCCN1)=N\N=C1NCCCN1
inactive: BT-549 > 100 µM | CCRF-CEM > 100 µM | HOP-62 > 100 µM | HOP-92 40.2 µM | Hs-578T > 100 µM | IGROV-1 > 100 µM | M14 > 100 µM | MDA-MB-231 > 100 µM | NCI-H226 > 100 µM | NCI-H460 > 100 µM | OVCAR-3 > 100 µM | OVCAR-4 > 100 µM | PC-3 > 100 µM | SF-268 > 100 µM | SF-295 > 100 µM | SK-MEL-28 > 100 µM | SNB-75 > 100 µM | U-251 > 100 µM | UACC-257 > 100 µM | UACC-62 > 100 µM

CCOC(=O)N/N=C/C1=NN(C(=O)OCC)[S+]([O-])C1C (stereo not given)
inactive: BT-549 > 100 µM | CCRF-CEM > 100 µM | HOP-62 > 100 µM | HOP-92 > 100 µM | Hs-578T > 100 µM | IGROV-1 > 100 µM | M14 > 100 µM | MDA-MB-231 > 100 µM | NCI-H226 > 100 µM | NCI-H460 96.8 µM | OVCAR-3 > 100 µM | OVCAR-4 > 100 µM | PC-3 > 100 µM | SF-268 > 100 µM | SF-295 > 100 µM | SK-MEL-28 > 100 µM | SNB-75 > 100 µM | U-251 > 100 µM | UACC-257 > 100 µM | UACC-62 > 100 µM

O=[N+]([O-])c1cc(-c2nc(-c3ccccc3)c(-c3ccccc3)[nH]2)c(O)c([N+](=O)[O-])c1
inactive: BT-549 20 µM | CCRF-CEM 25.9 µM | HOP-62 20.4 µM | HOP-92 19.8 µM | Hs-578T 27.4 µM | IGROV-1 32.7 µM | M14 21.1 µM | MDA-MB-231 22.4 µM | NCI-H226 20.1 µM | NCI-H460 21.5 µM | OVCAR-3 33 µM | OVCAR-4 34 µM | PC-3 20.3 µM | SF-268 30.1 µM | SF-295 22.3 µM | SK-MEL-28 31.7 µM | SNB-75 23 µM | U-251 14.8 µM | UACC-257 24.2 µM | UACC-62 17.5 µM

C=CCN(CCNS(=O)(=O)c1ccc(C)cc1)S(=O)(=O)c1ccc(C)cc1
inactive: BT-549 22.4 µM | CCRF-CEM > 55 µM | HOP-62 27.9 µM | HOP-92 > 69.3 µM | Hs-578T > 52.4 µM | IGROV-1 76.2 µM | M14 14 µM | MDA-MB-231 > 100 µM | NCI-H226 > 71.3 µM | NCI-H460 9.46 µM | OVCAR-3 19 µM | OVCAR-4 12.2 µM | PC-3 > 48 µM | SF-268 10.4 µM | SF-295 14 µM | SK-MEL-28 > 91.4 µM | SNB-75 15.1 µM | U-251 > 49.5 µM | UACC-257 8.02 µM | UACC-62 73.6 µM

CC(=O)Nc1ccc(NCC(=O)Nn2cnc3ccc(S(=O)(=O)Nc4ccc(NC(C)=O)cc4)cc3c2=O)cc1
inactive: BT-549 > 100 µM | CCRF-CEM > 100 µM | HOP-62 > 100 µM | HOP-92 > 100 µM | Hs-578T > 100 µM | IGROV-1 > 100 µM | M14 > 100 µM | MDA-MB-231 > 100 µM | NCI-H226 > 100 µM | NCI-H460 > 100 µM | OVCAR-3 > 100 µM | OVCAR-4 > 100 µM | PC-3 > 100 µM | SF-268 > 100 µM | SF-295 > 100 µM | SK-MEL-28 > 100 µM | SNB-75 > 100 µM | U-251 > 100 µM | UACC-257 > 100 µM | UACC-62 > 100 µM
